One may read the viability as a per cent measure of how many cells are alive, often set against a control. As usually defined, the IC50 is the concentration that gives 50% inhibition.

The values that follow come from patent US10889564B2, “Tetrahydroindazoles and medical uses thereof” (Genase Therapeutics B.V., priority 2015, dated 2021).

The structures appear in SMILES notation.

The test system of test [1] is uridine uptake in ARN8 cells. In words: Tritiated uridine uptake. In kind it is cell-based. To be noted: 15 min preincubation, 5,6-3H-Uridine 60 sec, FIG. 7. As for the experimental part: ARN8 cells were incubated with increasing concentrations of nilotinib and tritiated uridine. The amount of tritium label in cells was determined by scintillation counting. 200 000 ARN8 cells/well were seeded on 6-well plates. 24 h post-seeding, the cells were rinsed twice with transport buffer, pH 7.4 (20 mM Tris/HCl, 130 mM NaCl, 3 mM K2HPO4, 1 mM MgCl2, 5 mM Glucose) and then incubated for 15 min at 37° C. with compounds (or vehicle) diluted in transport buffer. 5,6-3H-Uridine (PerkinElmer, #NET367001MC) was added to a final concentration of 4 μCi/mL for 60 sec, and then removed with 5 quick washes with 1 mM ice-cold unlabelled uridine (Sigma, #U3003). Samples (in triplicate) were harvested in 10% SDS (Sigma) and transferred to a flexible 24-well microplate (Perkin Elmer, #1450-402). Optiphase Supermix scintillation buffer (PerkinElmer, #1200-439) was added and the counts per minute measured for 3 min.

The subject of another test is ARN8 melanoma cells. In words: Sulforhodamine B assay of cancer cell growth and/or viability. As to conditions: 72 hours; for viability at 2 µM: ARN8. In kind it is cell-based. As for the experimental part:
ARN8 melanoma cells are seeded at a density of 500 cells per well of a 96 well plate. Following 24 hours of incubation, cells are treated with increasing concentrations of the compound of Example 8 in the absence or presence of excess uridine (100 micromolar). Cells are incubated for 72 hours after which the growth medium is removed from the cells and replaced by […] of 1× sterile PBS and 50 μL of 40% trichloroacetic acid in dH2O. Samples are incubated at 4° C. for 1 h to fix the cells. The plate is then washed with 3 changes of water with all liquid allowed to drain from the plate. […] of 0.1% sulforhodamine B in 1% acetic acid in H2O is added to each well and incubated for 30 minutes. Excess dye is washed out with three changes of 1% acetic acid in H2O with all liquid allowed to drain from the plate. The remaining dye is solubilized in 100 microliters of 10 mM un-buffered basic Tris per well and absorbance read at 570 nm.
Background: Sulforhodamine B stains cellular protein and so reports cell mass.

Test [2] deals with p21 expression in ARN8 melanoma cells. The test is described as follows: Levels of p53 and downstream targets (hdm2, pig3, p21) with nutlin-3. In kind it is cell-based. To be noted: 1 h then 2 μM nutlin-3 for 18 h, FIG. 4. On the procedure:
Levels of p53 and downstream targets hdm2, pig3 (band indicated by arrow) and p21 were determined. Levels of gapdh were used to monitor protein loading. Pig3 is a known pro-apoptotic protein.

Test [3] deals with p53 synthesis in ARN8 melanoma cells. In words: p53 synthesis, 35S-Met pulse labelling and p53 immunoprecipitation. The format is cell-based. To be noted: 5 h treatment, 35S-Met 30 minutes, FIG. 3. As for the experimental part: Incorporation of 35S-Met in the p53 immunoprecipitate was determined by autoradiography. This experiment was performed in duplicate (Exp. 1 and Exp. 2).

The next test deals with K562 mtTP53, leukemia. In words: WST-1 assay. In kind it is cell-based. As to conditions: 72 hours. On the procedure: (§1) Adherent cell lines were cultured overnight prior to the addition of the compound of Example 1, whereas non-adherent cell lines were treated immediately after seeding. TP53 status in each cell line is indicated. All cells were grown in 10% FBS. p53 wild type or mutant status (wtTP53 or mtTP53) and tumor cell line origin are indicated. The results obtained are shown below and in FIG. 10.
Background: Tetrazolium assays rely on reduction of a dye to a coloured formazan, in cell work by metabolically active cells.

The next test deals with Ramos mtTP53, lymphoma. The test is described as follows: WST-1 assay. The format is cell-based. To be noted: 72 hours. On the procedure:
as §1

The next test relates to A375 wtTP53, melanoma. The test is described as follows: WST-1 assay. The format is cell-based. To be noted: 72 hours. As for the experimental part:
as §1

The subject of test [4] is HT29 mtTP53, colon cancer. In words: WST-1 assay. The format is cell-based. As to conditions: 72 hours. On the procedure:
as §1

The next test relates to JVM2 wtTP53, lymphoma. The test is described as follows: WST-1 assay. The format is cell-based. As to conditions: 72 hours. On the procedure: as §1
The subject of the next test is NB4 mtTP53, leukemia. The test is described as follows: WST-1 assay. In kind it is cell-based. As to conditions: 72 hours. On the procedure: as §1
In a further test the test system is RKO wtTP53, colon cancer. The test is described as follows: WST-1 assay. In kind it is cell-based. To be noted: 72 hours. As for the experimental part: as §1
The subject of a further test is U2OS wtTP53, sarcoma. The test is described as follows: WST-1 assay. The format is cell-based. As to conditions: 72 hours. As for the experimental part: as §1
The test system of test [5] is HCT116 wtTP53, colon cancer. In words: WST-1 assay. In kind it is cell-based. As to conditions: 72 hours. On the procedure: as §1
The next test deals with A431 mtTP53, skin cancer. In words: WST-1 assay. In kind it is cell-based. As to conditions: 72 hours. On the procedure: as §1
A further test deals with MV4-11 wtTP53, leukemia. The test is described as follows: WST-1 assay. As to conditions: 72 hours. In kind it is cell-based. On the procedure:
as §1

For another test, the system named is L428 mtTP53, lymphoma. In words: WST-1 assay. In kind it is cell-based. As to conditions: 72 hours. On the procedure:
as §1

For a further test, the system named is ARN8s wtTP53, melanoma. In words: WST-1 assay. In kind it is cell-based. To be noted: 72 hours. As for the experimental part:
TP53 status in each cell line is indicated. All cells were grown in 10% FBS. p53 wild type or mutant status (wtTP53 or mtTP53) and tumor cell line origin are indicated.

The target in test [6] is human dihydroorotate dehydrogenase (DHODH) (Homo sapiens (Human), UniProt Q02127). The test is described as follows: DHODH enzyme assay, Assay A (DCIP absorbance). The format is biochemical. To be noted: 6 nM recombinant human DHODH. As for the experimental part: Inhibition of human dihydroorotate dehydrogenase (DHODH) by example compounds as described herein was determined using one of two assays as described below.
DHODH enzyme assays were performed with 6 nM recombinant human DHODH (purified essentially as described by Walse et. al., Biochemistry, 47, 8929-8936 (2008)). The reaction mixture consisted of 1 mM DL-dihydroorotic acid (#D7003, Sigma-Aldrich), 100 μM 3,4-dimethoxy-5-methyl-p-benzoquinone (#D9150, Sigma-Aldrich), and 100 μM 2,6-dichlorophenolindophenol sodium salt (DCIP) (#D1878, Sigma-Aldrich) in enzyme buffer (50 mM Tris-HCl pH 8.0, 0.1% Triton X-100, 150 mM KCl). A stock solution of 20 mM DCIP was prepared in enzyme buffer and filtered through Whatman paper just before use. Loss in absorbance by chromogen DCIP was measured at 595 nm at RT every 3 min for an hour.

human dihydroorotate dehydrogenase (DHODH), sequence (Q02127 29-395): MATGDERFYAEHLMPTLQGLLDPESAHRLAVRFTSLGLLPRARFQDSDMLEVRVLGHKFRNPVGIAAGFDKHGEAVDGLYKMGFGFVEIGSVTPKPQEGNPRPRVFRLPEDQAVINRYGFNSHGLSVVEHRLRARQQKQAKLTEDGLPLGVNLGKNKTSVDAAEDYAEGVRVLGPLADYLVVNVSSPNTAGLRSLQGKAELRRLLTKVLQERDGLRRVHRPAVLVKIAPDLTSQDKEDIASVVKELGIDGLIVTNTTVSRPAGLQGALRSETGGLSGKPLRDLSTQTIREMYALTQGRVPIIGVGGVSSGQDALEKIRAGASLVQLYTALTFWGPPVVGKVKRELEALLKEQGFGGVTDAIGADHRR

With `Cc1cn(-c2cc(NC(=O)c3ccc(C)c(Nc4nccc(-c5cccnc5)n4)c3)cc(C(F)(F)F)c2)cn1` [nilotinib], the uridine uptake entry in test [1] is given as “blocks uridine uptake”.

`O=C(NC1CCCc2c1cnn2-c1ccccc1F)c1ccccn1` (stereo not shown) [Example 1, N-(1-(2-Fluorophenyl)-4,5,6,7-tetrahydro-1H-indazol-4-yl)picolinamide] returned a viability at 2 µM in the test on ARN8 melanoma cells (absence of excess uridine) of 53%. Moreover, in [2], the “nutlin-3 induced p21 expression” value is recorded as “Loss of nutlin-3 induced p21 expression”. Also, the p53 synthesis entry in test [3] was “increases p53 synthesis”. Further, the “metabolically active cells, percentage relative to the vehicle (DMSO) control” value in the test on K562 mtTP53, leukemia (1.23 μM) was 63.91%; in the test on K562 mtTP53, leukemia (3.70 μM), 57.69%; with K562 mtTP53, leukemia (11.11 μM) it was 55.28%; in the test on K562 mtTP53, leukemia (33.30 μM) it was 53.35%; with Ramos mtTP53, lymphoma (1.23 μM), 87.94%; in the test with Ramos mtTP53, lymphoma (3.70 μM), 54.16%. The “metabolically active cells, percentage relative to the vehicle (DMSO) control” value in the test on Ramos mtTP53, lymphoma (11.11 μM) is listed as 42.35%; in the test on Ramos mtTP53, lymphoma (33.30 μM), 40.94%; with A375 wtTP53, melanoma (1.23 μM), 85.95%; with A375 wtTP53, melanoma (3.70 μM), 50.62%; in the test with A375 wtTP53, melanoma (11.11 μM), 45.86%; with A375 wtTP53, melanoma (33.30 μM), 32.67%. Further, the “metabolically active cells, percentage relative to the vehicle (DMSO) control” value in test [4] (1.23 μM) is 70.23%; in [4] (3.70 μM), 23.19%; in [4] (11.11 μM), 25.66%; in test [4] (33.30 μM), 12.11%; with JVM2 wtTP53, lymphoma (1.23 μM) it was 86.30%; in the test with JVM2 wtTP53, lymphoma (3.70 μM), 75.36%. Besides, the “metabolically active cells, percentage relative to the vehicle (DMSO) control” value with JVM2 wtTP53, lymphoma (11.11 μM) worked out at 44.68%; with JVM2 wtTP53, lymphoma (33.30 μM), 38.31%; in the test with NB4 mtTP53, leukemia (1.23 μM) it was 79.47%; in the test with NB4 mtTP53, leukemia (3.70 μM), 65.73%; in the test on NB4 mtTP53, leukemia (11.11 μM) it was 42.77%; with NB4 mtTP53, leukemia (33.30 μM), 36.19%. The “metabolically active cells, percentage relative to the vehicle (DMSO) control” value with RKO wtTP53, colon cancer (1.23 μM) came to 83.37%; in the test on RKO wtTP53, colon cancer (3.70 μM), 42.62%; in the test on RKO wtTP53, colon cancer (11.11 μM) it was 36.36%; with RKO wtTP53, colon cancer (33.30 μM), 29.16%; with U2OS wtTP53, sarcoma (1.23 μM) it was 98.88%; in the test on U2OS wtTP53, sarcoma (3.70 μM) it was 70.03%. For the same compound, the “metabolically active cells, percentage relative to the vehicle (DMSO) control” value is given as 51.63% in the test on U2OS wtTP53, sarcoma (11.11 μM); 50.16% in the test on U2OS wtTP53, sarcoma (33.30 μM); 75.69% in test [5] (1.23 μM); 50.13% in test [5] (3.70 μM); 28.40% in test [5] (11.11 μM); 14.51% in test [5] (33.30 μM). Also, the “metabolically active cells, percentage relative to the vehicle (DMSO) control” value amounted to 76.99% with A431 mtTP53, skin cancer (1.23 μM); 52.31% in the test with A431 mtTP53, skin cancer (3.70 μM); 36.84% in the test on A431 mtTP53, skin cancer (11.11 μM); 27.93% in the test with A431 mtTP53, skin cancer (33.30 μM); 60.26% in the test with MV4-11 wtTP53, leukemia (1.23 μM); 36.85% in the test on MV4-11 wtTP53, leukemia (3.70 μM). Moreover, the “metabolically active cells, percentage relative to the vehicle (DMSO) control” value with MV4-11 wtTP53, leukemia (11.11 μM) was 19.73%; with MV4-11 wtTP53, leukemia (33.30 μM), 15.79%; in the test on L428 mtTP53, lymphoma (1.23 μM), 67.78%; with L428 mtTP53, lymphoma (3.70 μM), 33.84%; with L428 mtTP53, lymphoma (11.11 μM), 32.76%; with L428 mtTP53, lymphoma (33.30 μM) it was 34.80%. Moreover, the “metabolically active cells, percentage relative to the vehicle (DMSO) control” value is given as 68.69% in the test with ARN8s wtTP53, melanoma (1.23 μM); 40.86% with ARN8s wtTP53, melanoma (3.70 μM); 35.13% with ARN8s wtTP53, melanoma (11.11 μM).

Turning to `O=C(NC1CCCc2c1cnn2-c1ccccc1F)c1onc2c1CCCC2` (stereo not shown) [Example 8, N-(1-(2-fluorophenyl)-4,5,6,7-tetrahydro-1H-indazol-4-yl)-4,5,6,7-tetrahydrobenzo[c]isoxazole-3-carboxamide], the “ARN8 melanoma cell growth and/or viability” value in the test on ARN8 melanoma cells (absence of excess uridine, FIG. 2) is “reduces ARN8 melanoma cell growth and/or viability”. The “effect on ARN8 melanoma cell growth and/or viability with excess uridine” value in the test on ARN8 melanoma cells (excess uridine (100 micromolar), FIG. 2) is on record as “largely prevented by the addition of excess uridine”. Also, in the test on ARN8 melanoma cells (absence of excess uridine), the viability at 2 µM was 48%. The IC50 in test [6] was found to be 0.032 µM.

Turning to `COC(=O)c1ccc(C(=O)NC2CCCc3c2cnn3-c2ccccc2F)nc1` (stereo not shown) [Example 7, Methyl 6-({[1-(2-fluorophenyl)-4,5,6,7-tetrahydro-1H-indazol-4-yl]amino}carbonyl)nicotinate], the viability at 2 µM in the test with ARN8 melanoma cells (absence of excess uridine) is 28%. In test [6], the IC50 was > 10 µM.
